The source of these data is patent US11273152B2, “TRPV2 antagonists” (Instituto de Medicina Molecular João Lobo Antunes, priority 2017, dated 2022).

The structures appear in SMILES notation.

Experiment [1] concerns the target T1, human TRPV2-RFP fusion protein (Homo sapiens, UniProt Q9Y5S1).
T1 construct: Itaru Kojima, Gunma University; host or cells: HEK293, transient
Put plainly: Intracellular calcium imaging in HEK293 transfected with TRPV2-RFP. Format: cell-based. The following applies: CBD 4 μM; 1 at 5 μM; 300 s post stimulation. How it is done: Cells (ATCC) were grown to 50% confluency in DMEM (Gibco) supplemented with 10% FBS (Gibco), GlutaMax (Gibco), MEM and NEAA (Gibco), 4.5 g/L glucose and 0.11 g/L sodium pyruvate. Cells were seeded in μ-ibidi 8 well plates and transfected with TRPV2-RFP^34 (kindly gifted by Prof. Itaru Kojimu Gunma University, Japan). After 48 h of incubation, cells were subjected to calcium imaging. Intracellular calcium measurements were performed with Fura-2 AM (Life Technologies) and modified from previously described studies.^12 In short, 1 hour before the measurement, cells were loaded with 5 μM Fura-2-AM for 45 minutes. Cell medium was replaced by Tyrod's solution (119 mM NaCl, 5 mM KCl, 2 mM CaCl2, 2 mM MgCl2, 6 g/L glucose, 25 mM HEPES pH 7.4). Simultaneously, the respective treatment was added to the cells (final concentration of 1% DMSO (control), 5 μM piperlongumine and 10 μM tranilast) and cells were allowed to re-adjustment for 15 minutes. Fura-2 AM emissions from 340 nm and 380 nm excitation were recorded for 1 minute before TRPV2 was activated by addition of 4 μM or 20 μM cannabidiol (CBD). Image analysis was done using the MetaFluor Analyst software. The statistical analysis was performed with astatsa.com. After calcium imaging acquisition, the cells were immediately fixed with 4% paraformaldehyde for 15 min. […]
(In general: Calcium assays in cells follow changes in intracellular calcium, usually with a dye or a luminescent sensor.)

The next experiment has as its target TRPV1 (Homo sapiens, UniProt Q8NER1). Briefly: Fluorescence cell-based assay, TRPV1. The following applies: calcium 5 dye, duplicate. How it is done: (§1) The assays were performed at SB Discovery (Glasgow, UK) on a fee-for-service basis. Human TRP cells were trypsinised, counted and seeded in black, clear-bottomed 96 well plates at a density of 50,000 cells per well in 100 μL volume and incubated overnight. Next day, the cells were loaded with calcium 5 dye or membrane potential dye. TRPV1-5, TRPA1, TRPM2, TRPM3, and TRPM8 were tested using the calcium 5 dye. TRPC1, TRPC3-7, and TRPM4-5 were tested using the membrane potential dye. Both dye solutions were made up in HEPES buffered Hank's balanced salt solution (HBSS). Dye solution (90 μL) was added to the wells and incubated at 37° C. for 1 hour. Test compounds and standard inhibitors (10 μL) were then added to the wells and incubated at room temperature for 10 minutes. The plates were then placed in the flexstation and fluorescence monitored every 1.52 seconds. After 20 seconds agonist was added and the fluorescence monitored for 2 minutes at 485 nm/525 nm and 530 nm/565 nm, Ex/Em, for the calcium 5 dye and the membrane potential dye respectively. Controls-TRPV1: capsazepine; TRPV2: tranilast; TRPV3: ruthenium red; TRPV4: ruthenium red; TRPV5: Gd^3+; TRPA1, ruthenium red; TRPC1: Gd^3+; TRPC3: Pyr3; TRPC4: ML 204; TRPC5: ML 204; TRPC6: ML 204; TRPC7: SKF 96365; TRPM2: 2-APB; TRPM3: Mef acid; TRPM4: clotrimazole; TRPM5: TPPO; TRPM8: 2-APB. […]

The next experiment concerns the target TRPM5 (Homo sapiens, UniProt Q9NZQ8). Put plainly: Fluorescence cell-based assay, TRPM5. The following applies: membrane potential dye, duplicate. How it is done: as §1
Another experiment relates to Huh-7. Put plainly: Wound-healing scratch assay, Huh-7. Format: cell-based.
In another experiment the target is TRPC7 (Homo sapiens, UniProt Q9HCX4). Briefly: Fluorescence cell-based assay, TRPC7. The following applies: membrane potential dye, spread in log units, duplicate. The procedure: as §1
A further experiment has as its target TRPM2 (Homo sapiens, UniProt O94759). Put plainly: Fluorescence cell-based assay, TRPM2. The following applies: calcium 5 dye, duplicate. How it is done: as §1
The subject of the next experiment is chiru TRPV2 orthologue. Briefly: Isothermal titration calorimetry, chiru TRPV2. Format: binding. The following applies: chiru TRPV2 constructs; 100 μM.

Chain of TRPM5 (Q9NZQ8 whole entry): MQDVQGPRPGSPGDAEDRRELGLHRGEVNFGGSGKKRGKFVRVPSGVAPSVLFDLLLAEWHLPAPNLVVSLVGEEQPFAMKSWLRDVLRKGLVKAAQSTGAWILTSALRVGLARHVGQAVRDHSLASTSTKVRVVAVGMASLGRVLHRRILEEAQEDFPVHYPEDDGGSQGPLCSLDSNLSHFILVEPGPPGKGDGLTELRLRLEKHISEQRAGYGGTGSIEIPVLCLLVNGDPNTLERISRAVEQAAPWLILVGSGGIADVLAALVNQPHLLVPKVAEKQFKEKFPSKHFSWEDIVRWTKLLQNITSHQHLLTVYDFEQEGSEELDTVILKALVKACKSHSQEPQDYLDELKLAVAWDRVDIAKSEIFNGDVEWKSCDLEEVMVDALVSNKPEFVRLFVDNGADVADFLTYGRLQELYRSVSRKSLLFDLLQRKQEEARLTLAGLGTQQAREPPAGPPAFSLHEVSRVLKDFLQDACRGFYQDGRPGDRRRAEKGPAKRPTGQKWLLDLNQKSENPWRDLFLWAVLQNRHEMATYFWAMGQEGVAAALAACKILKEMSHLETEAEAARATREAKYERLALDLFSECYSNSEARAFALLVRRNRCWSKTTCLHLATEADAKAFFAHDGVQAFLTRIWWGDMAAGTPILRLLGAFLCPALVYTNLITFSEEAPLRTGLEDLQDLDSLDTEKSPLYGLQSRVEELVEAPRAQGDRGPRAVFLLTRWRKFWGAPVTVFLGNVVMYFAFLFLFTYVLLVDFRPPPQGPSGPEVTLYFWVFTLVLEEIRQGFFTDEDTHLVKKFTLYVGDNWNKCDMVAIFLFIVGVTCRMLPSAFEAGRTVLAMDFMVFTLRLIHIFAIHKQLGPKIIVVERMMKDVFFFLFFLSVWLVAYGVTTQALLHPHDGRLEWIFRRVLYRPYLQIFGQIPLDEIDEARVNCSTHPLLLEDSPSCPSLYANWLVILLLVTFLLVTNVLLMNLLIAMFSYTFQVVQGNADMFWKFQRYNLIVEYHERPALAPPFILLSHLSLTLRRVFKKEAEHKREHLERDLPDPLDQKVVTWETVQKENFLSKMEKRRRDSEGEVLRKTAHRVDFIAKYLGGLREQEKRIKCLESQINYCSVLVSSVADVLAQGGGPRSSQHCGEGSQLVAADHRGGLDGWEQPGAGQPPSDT
Chain of TRPC7 (Q9HCX4 whole entry): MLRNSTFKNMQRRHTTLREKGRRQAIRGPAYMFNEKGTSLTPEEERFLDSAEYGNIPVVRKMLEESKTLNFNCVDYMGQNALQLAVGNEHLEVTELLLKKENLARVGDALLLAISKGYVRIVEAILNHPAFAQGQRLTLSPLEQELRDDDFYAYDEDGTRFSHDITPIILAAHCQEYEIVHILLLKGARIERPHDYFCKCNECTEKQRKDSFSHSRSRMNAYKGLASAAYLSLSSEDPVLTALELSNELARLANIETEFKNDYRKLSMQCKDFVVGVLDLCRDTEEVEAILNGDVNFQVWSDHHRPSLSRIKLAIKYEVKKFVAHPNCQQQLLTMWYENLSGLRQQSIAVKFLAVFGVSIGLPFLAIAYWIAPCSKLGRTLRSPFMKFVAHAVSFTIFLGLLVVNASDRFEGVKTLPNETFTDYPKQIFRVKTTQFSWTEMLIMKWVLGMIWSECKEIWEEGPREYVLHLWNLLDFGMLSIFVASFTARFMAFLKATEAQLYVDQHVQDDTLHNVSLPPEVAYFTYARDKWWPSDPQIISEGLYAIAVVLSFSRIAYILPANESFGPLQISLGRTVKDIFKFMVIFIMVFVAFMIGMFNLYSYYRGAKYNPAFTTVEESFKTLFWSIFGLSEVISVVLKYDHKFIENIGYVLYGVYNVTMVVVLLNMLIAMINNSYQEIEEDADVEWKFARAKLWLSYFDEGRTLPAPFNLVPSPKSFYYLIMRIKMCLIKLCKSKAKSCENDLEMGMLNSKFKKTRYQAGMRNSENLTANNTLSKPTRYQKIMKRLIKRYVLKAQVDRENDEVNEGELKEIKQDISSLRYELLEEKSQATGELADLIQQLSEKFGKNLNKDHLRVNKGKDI
Chain of TRPV1 (Q8NER1 whole entry): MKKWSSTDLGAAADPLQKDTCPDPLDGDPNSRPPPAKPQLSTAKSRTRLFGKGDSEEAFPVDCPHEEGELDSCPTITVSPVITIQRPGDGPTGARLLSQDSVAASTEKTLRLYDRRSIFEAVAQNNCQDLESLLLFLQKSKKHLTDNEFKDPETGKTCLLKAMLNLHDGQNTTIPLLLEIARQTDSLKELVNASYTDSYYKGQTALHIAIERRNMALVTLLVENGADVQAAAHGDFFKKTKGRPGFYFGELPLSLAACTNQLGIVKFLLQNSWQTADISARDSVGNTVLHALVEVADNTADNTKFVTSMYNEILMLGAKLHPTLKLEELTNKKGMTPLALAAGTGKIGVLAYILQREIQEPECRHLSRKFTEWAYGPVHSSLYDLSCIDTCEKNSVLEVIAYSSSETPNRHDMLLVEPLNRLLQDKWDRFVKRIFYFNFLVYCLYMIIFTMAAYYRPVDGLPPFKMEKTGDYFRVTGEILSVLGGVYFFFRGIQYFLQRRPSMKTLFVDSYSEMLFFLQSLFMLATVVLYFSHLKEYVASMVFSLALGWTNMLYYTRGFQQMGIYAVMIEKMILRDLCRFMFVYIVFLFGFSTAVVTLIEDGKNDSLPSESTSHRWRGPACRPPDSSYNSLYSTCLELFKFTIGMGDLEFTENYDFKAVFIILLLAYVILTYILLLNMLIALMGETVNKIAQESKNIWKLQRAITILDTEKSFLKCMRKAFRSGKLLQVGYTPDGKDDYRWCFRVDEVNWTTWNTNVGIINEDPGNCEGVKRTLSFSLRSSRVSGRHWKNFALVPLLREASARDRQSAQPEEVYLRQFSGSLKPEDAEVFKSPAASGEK
T1 sequence (Q9Y5S1 whole entry, the tested form may be a part): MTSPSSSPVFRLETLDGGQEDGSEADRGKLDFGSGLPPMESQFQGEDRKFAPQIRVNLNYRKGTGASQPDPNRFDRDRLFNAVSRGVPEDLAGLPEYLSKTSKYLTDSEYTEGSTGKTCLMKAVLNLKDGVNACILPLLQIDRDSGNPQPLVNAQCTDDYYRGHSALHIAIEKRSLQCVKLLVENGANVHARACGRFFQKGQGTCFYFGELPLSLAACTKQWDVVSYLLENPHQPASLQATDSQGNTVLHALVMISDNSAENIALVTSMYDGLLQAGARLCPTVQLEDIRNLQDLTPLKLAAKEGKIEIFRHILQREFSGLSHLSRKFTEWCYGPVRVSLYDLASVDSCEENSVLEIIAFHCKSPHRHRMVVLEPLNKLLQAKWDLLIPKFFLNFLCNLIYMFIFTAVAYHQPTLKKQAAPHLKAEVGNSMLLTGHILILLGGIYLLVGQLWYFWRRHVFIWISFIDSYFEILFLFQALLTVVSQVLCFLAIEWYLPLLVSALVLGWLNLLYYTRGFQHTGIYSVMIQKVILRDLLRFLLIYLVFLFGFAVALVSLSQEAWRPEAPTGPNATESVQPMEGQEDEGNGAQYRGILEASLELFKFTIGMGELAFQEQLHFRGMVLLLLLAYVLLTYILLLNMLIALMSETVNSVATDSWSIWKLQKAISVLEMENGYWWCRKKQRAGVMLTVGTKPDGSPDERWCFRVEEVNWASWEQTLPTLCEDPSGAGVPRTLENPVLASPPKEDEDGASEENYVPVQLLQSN

Usually IC50 stands for the concentration at which inhibition is half-maximal. Regarding `COc1cc(/C=C/C(=O)N2CCC=CC2=O)cc(OC)c1OC` [Compound 1, piperlongumine], the “Inhibition of CBD evoked calcium influx in transfected HEK293 cells” value in experiment [1] is “significant difference between control and 1 (p<0.001)”. Besides, the IC50 at TRPV1 was more than 100 µM; at TRPM5 it was more than 100 µM; at TRPC7, 64 ± 0.06 µM; on TRPM2, more than 100 µM. In addition, in the experiment with Huh-7, the “Cell migration, wound healing” value was “reproducible”. In addition, in the experiment on chiru TRPV2 orthologue, the “Binding by isothermal titration calorimetry” value is “did not bind”.
